Values quoted from earlier work in US20030093057A1, “Methods and formulations for photodynamic therapy” (priority 2001, published 2003).
Like-named read-outs stand apart in the source and are kept apart here.

How the values were obtained:
[1] = mouse skin
[2] = human skin

NCC(=O)CCC(=O)O [ALA, delta-aminolevulinic acid]
penetration of ALA into skin at increased temperature [1]: did not cause increased penetration | penetration of ALA into skin at increased temperature [2]: did not cause increased penetration
